Literature values, collected in US20210198302A1, “OLIGOSACCHARIDE COMPOSITIONS AND METHODS OF USE THEREOF FOR REDUCING AMMONIA LEVELS” (Kaleido Biosciences, Inc., priority 2018, published 2021).

Tested on: OHE patients
Details: administered in combination with lactulose

## CO[C@H]1/C=C/O[C@@]2(C)Oc3c(C)c(O)c4c(O)c(c5c(nc6cc(C)ccn65)c4c3C2=O)NC(=O)/C(C)=C\C=C\[C@H](C)[C@H](O)[C@@H](C)[C@@H](O)[C@@H](C)[C@H](OC(C)=O)[C@@H]1C [rifaximin]
  reduction of episodes of OHE: approximately 50%
